Data taken from patent US20240122179A1, “AUXINIC HERBICIDES AND METHODS OF USE THEREOF” (CORTEVA AGRISCIENCE LLC, priority 2021, published 2024).
Read-outs that look alike come from different tables or passages of the source.

What was measured:
Amaranthus rudis (AMATA) = assay: Postemergence herbicide evaluation, percent reduction in plant size vs untreated control, 21 days after treatment; type: in vivo, Amaranthus rudis (tall water hemp); details: Amaranthus tuberculatus, post-emergence, 504 h, read-out: Control/Injury
Outline: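 Growth-reduction values are percent decrease in plant size relative to untreated plants, scored 21 days post-application. Amaranthus rudis (2-8 leaves) received postemergence sprays at 140 or 280 g ae/ha, 187 L/ha, in a mixed acetone/DMSO/water/isopropanol carrier with crop oil concentrate. Greenhouse conditions were 25-28° C, 50-60% RH; 3-4 randomized replicates.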

Glycine max = assay: whole plant or invertebrate; details: for Control/Injury: in vivo; for plant injury at 140 g/ha / plant injury at 280 g/ha: Glycine max, post-emergence, 504 h, read-out: Control/Injury
Description: Plants were grown in a soil media composed of 90% by volume Promix BX (Premier Tech Horticulture, Quakertown, PA) and 10% Profile Greens Grade (Profile Products LLC, Buffalo Grove, IL). Promix BX contains approximately 83% Sphagnum Peat Moss, 13% Perlite, 5% vermiculite, and proprietary amounts of limestone, starter fertilizer, and wetting agent. Profile Greens Grade is a sand-sized granule formed from calcining illite and montmorillonite clay. Several seeds of each species were planted in 10 cm square pots and top watered twice daily. Plant material was propagated in a warm greenhouse with temperature ranging from 25 to 28° C. and 50 to 60% relative humidity at the Corteva Global Headquarters (Indianapolis, Indiana, USA). Natural light was supplemented with 1000-watt metal halide overhead lamps with an average illumination of 500 μE m^−2 s^−1 photosynthetic active radiation for 16 consecutive hours each day. Plants were top-watered prior to herbicide application and sub-watered after herbicide application.
Appropriate amounts of test materials were weighed out into glass vials in their technical form to deliver either 140 or 280 g acid equivalent (ae)/ha. The samples were dissolved in 3 ml of Solvent 1. Solvent 1 is 97% acetone and 3% dimethyl sulfoxide and serves as a general-purpose solvent (GPS) for dissolving technical materials. […] The samples were then diluted to their final concentration using 17 ml of solvent 2 for a total of 20 ml of spray solution. Solvent 2 contains 41.58% GPS, 45.53% water, 11.88% isopropyl alcohol, 0.99% crop oil concentrate and 0.02% Trition X-155 surfactant. All percentages are listed on a volume basis. Dicamba diglycolamine was applied as a formulated herbicide, Clarity™ and diluted with solvent 2 to compare all materials in the same spray solution.
Herbicide applications were made to 3 to 4 replicates of each plant species at the 2 to 8 leaf stage, depending on the species. Treatments were applied with a research track-sprayer (Generation III Research Sprayer manufactured by DeVries Manufacturing in Hollandale, MN, USA) calibrated to deliver a spray volume of 187 L/ha. The track-sprayer was fitted with an 8003E nozzle from Spray Systems Company (North Avenue and Schmale Road, P.O. Box 7900, Wheaton, IL 60187), and used a spray pressure of 276 kPa pressure and a speed of 3.1 km/h. The nozzle height was 46 cm above the plant canopy. The experimental design used for the trials was a randomized complete block with 3 or 4 replications per treatment. After application, plants were placed on carts according to the randomization and returned to the greenhouse. Plants were sub-watered after treatment with Indianapolis city water or fertilized three times a week with a commercial fertilizer solution (Jack's Professional 15-5-15 4 Ca 2 Mg fertilizer (manufactured by JR PETERS INC., 6656 Grant Way, Allentown, PA 18106; www.jrpeters.com). Percent visual control assessments were made on a scale of 0 to 100% (where 0 was no control and 100 was complete plant death) at 7, 14, and 21 days after treatment.
In conformity with the methods outlined in Example 49, the effect of representative experimental compounds on the growth of Glycine max was determined at 2 different levels (respectively, 140 and 280 g acid equivalent (ae)/ha) of the experimental actives tested. Plants were treated with one of the compounds, a control plant was not treated. Twenty-one days after treatment, the plants were measured. The data is present as a percent reduction in plant size relative to the untreated control.

Kochia scoparia (KCHSC) = assay: Postemergence herbicide evaluation, percent reduction in plant size vs untreated control, 21 days after treatment; type: in vivo; details: Bassia scoparia, post-emergence, 504 h, read-out: Control/Injury
Outline: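 Values are percent reduction in plant size against an untreated control, measured 21 days after a single postemergence spray at 140 or 280 g ae/ha (187 L/ha, 276 kPa). Treatments used 3-4 randomized complete-block replicates on 2 to 8 leaf-stage plants kept in a 25-28 °C greenhouse, with compounds in acetone/DMSO-based solvent containing crop oil and surfactant.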

[1] = test system: Amaranthus palmeri (AMAPA); assay: as above; type: in vivo, Amaranthus palmeri (Palmer amaranth); details: post-emergence, 504 h, read-out: Control/Injury
Outline: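 Percent reduction in plant size relative to untreated plants, measured 21 days after track-sprayer application (187 L/ha) of 140 or 280 g ae/ha to Amaranthus palmeri at the 2 to 8 leaf stage. Randomized complete block, 3 or 4 replicates, greenhouse at 25 to 28° C; spray solution acetone/DMSO with isopropanol, water and crop oil concentrate.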

[2] = test system: Ambrosia artemisiifolia (AMBEL); assay: as above; type: in vivo, Ambrosia artemisiifolia (common ragweed); details: post-emergence, 504 h, read-out: Control/Injury
Outline: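 Test compounds at 140 or 280 g ae/ha were applied by track sprayer (187 L/ha, spray solution containing acetone/DMSO, isopropanol, crop oil, surfactant) to 2–8 leaf plants, 3–4 replicates. Plants were kept in a greenhouse at 25–28 °C. Size reduction was scored against untreated controls at 21 days.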

[3] = test system: Conyza canadensis (L.) (ERICA); assay: as above; type: in vivo, Conyza canadensis (L.) (Horseweed); details: Erigeron canadensis, post-emergence, 504 h, read-out: Control/Injury
Outline: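 Track-sprayer applications (187 L/ha, 276 kPa) of 140 or 280 g ae/ha, technical material dissolved in acetone/DMSO then diluted with crop oil and surfactant-containing solvent, to greenhouse Conyza canadensis at 2-8 leaves. After 21 days, size reduction relative to untreated plants was recorded; 3-4 randomized replicates.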

[4] = AMATA, rate 140 g ae/ha, postemergence
[5] = AMATA, rate 280 g ae/ha, postemergence
[6] = KCHSC, rate 140 g ae/ha, postemergence
[7] = KCHSC, rate 280 g ae/ha, postemergence
[8] = R-AMAPA, rate 140 g ae/ha, postemergence, percent reduction vs untreated control, 21 days after treatment
[9] = R-AMAPA, rate 280 g ae/ha, postemergence, percent reduction vs untreated control, 21 days after treatment
[10] = AMBEL, rate 140 g ae/ha, postemergence
[11] = AMBEL, rate 280 g ae/ha, postemergence
[12] = ERICA, rate 140 g ae/ha, postemergence, percent reduction vs untreated control, 21 days after treatment
[13] = ERICA, rate 280 g ae/ha, postemergence, percent reduction vs untreated control, 21 days after treatment

Question: How did the pest or weed control at 140 g/ha (Amaranthus rudis (AMATA); [4]) turn out when COc1c(Cl)ccc(Cl)c1C(=O)Oc1cncnc1 [Compound A-66] was run?
Answer: 0%

Question: What about the pest or weed control at 280 g/ha (Amaranthus rudis (AMATA); [5]) of the same compound?
Answer: 2%

Question: What about the Control/Injury (Glycine max) of the same compound?
Answer: 3

Question: What about the pest or weed control at 140 g/ha (Kochia scoparia (KCHSC); [6]) of the same compound?
Answer: 0%

Question: And the pest or weed control at 280 g/ha (Kochia scoparia (KCHSC); [7])?
Answer: 0%

Question: And the pest or weed control at 140 g/ha [1, 8]?
Answer: 13%

Question: What about the pest or weed control at 280 g/ha [1, 9] of the same compound?
Answer: 5%

Question: And the pest or weed control at 140 g/ha [2, 10]?
Answer: 15%

Question: And the pest or weed control at 280 g/ha [2, 11]?
Answer: 15%

Question: And the pest or weed control at 140 g/ha [3, 12]?
Answer: 0%

Question: And the pest or weed control at 280 g/ha [3, 13]?
Answer: 2%

Question: COc1c(Cl)ccc(Cl)c1C(=O)ON1C(=O)c2ccccc2C1=O [Compound A-74] was tested. Which pest or weed control at 140 g/ha (Amaranthus rudis (AMATA); [4]) did it give?
Answer: 70%

Question: What about the pest or weed control at 280 g/ha (Amaranthus rudis (AMATA); [5]) of the same compound?
Answer: 90%

Question: And the plant injury at 140 g/ha (Glycine max)?
Answer: 2%

Question: What about the plant injury at 280 g/ha (Glycine max) of the same compound?
Answer: 3%

Question: What about the pest or weed control at 140 g/ha (Kochia scoparia (KCHSC); [6]) of the same compound?
Answer: 94%

Question: What about the pest or weed control at 280 g/ha (Kochia scoparia (KCHSC); [7]) of the same compound?
Answer: 97%

Question: And the pest or weed control at 140 g/ha [1, 8]?
Answer: 68%

Question: And the pest or weed control at 280 g/ha [1, 9]?
Answer: 85%

Question: And the pest or weed control at 140 g/ha [2, 10]?
Answer: 77%

Question: And the pest or weed control at 280 g/ha [2, 11]?
Answer: 88%

Question: And the pest or weed control at 140 g/ha [3, 12]?
Answer: 70%

Question: What about the pest or weed control at 280 g/ha [3, 13] of the same compound?
Answer: 83%

Question: With COc1c(Cl)ccc(Cl)c1C(=O)O/N=C(\C#N)c1ccccc1 [Compound A-84] as the compound, how does the pest or weed control at 140 g/ha (Amaranthus rudis (AMATA)) read?
Answer: 17%

Question: And the pest or weed control at 280 g/ha (Amaranthus rudis (AMATA))?
Answer: 27%

Question: What about the plant injury at 140 g/ha (Glycine max) of the same compound?
Answer: 8%

Question: What about the plant injury at 280 g/ha (Glycine max) of the same compound?
Answer: 38%

Question: What about the pest or weed control at 140 g/ha (Kochia scoparia (KCHSC)) of the same compound?
Answer: 68%

Question: And the pest or weed control at 280 g/ha (Kochia scoparia (KCHSC))?
Answer: 85%

Question: What about the pest or weed control at 140 g/ha [1] of the same compound?
Answer: 33%

Question: And the pest or weed control at 280 g/ha [1]?
Answer: 28%

Question: And the pest or weed control at 140 g/ha [2]?
Answer: 70%

Question: And the pest or weed control at 280 g/ha [2]?
Answer: 78%

Question: And the pest or weed control at 140 g/ha [3]?
Answer: 37%

Question: And the pest or weed control at 280 g/ha [3]?
Answer: 78%

Question: For COCCONC(=O)c1c(Cl)ccc(Cl)c1OC [Compound A-95], which plant injury at 140 g/ha (Glycine max) is on record?
Answer: 4%

Question: And the plant injury at 280 g/ha (Glycine max)?
Answer: 6%

Question: And the Control/Injury (Glycine max)?
Answer: 15

Question: And the pest or weed control at 140 g/ha (Kochia scoparia (KCHSC); KCHSC, rate 140 g ae/ha, postemergence, percent reduction vs untreated control, 21 days after treatment)?
Answer: 57%

Question: And the pest or weed control at 140 g/ha (Kochia scoparia (KCHSC); KCHSC, rate 140 g ae/ha, postemergence, percent reduction vs untreated, 21 days after treatment)?
Answer: 3%

Question: What about the pest or weed control at 280 g/ha (Kochia scoparia (KCHSC); KCHSC, rate 280 g ae/ha, postemergence, percent reduction vs untreated control, 21 days after treatment) of the same compound?
Answer: 77%

Question: And the pest or weed control at 280 g/ha (Kochia scoparia (KCHSC); KCHSC, rate 280 g ae/ha, postemergence, percent reduction vs untreated, 21 days after treatment)?
Answer: 3%

Question: What about the pest or weed control at 140 g/ha ([1]; AMAPA, rate 140 g ae/ha, postemergence) of the same compound?
Answer: 5%

Question: And the pest or weed control at 280 g/ha ([1]; AMAPA, rate 280 g ae/ha, postemergence)?
Answer: 13%

Question: What about the pest or weed control at 140 g/ha [1, 8] of the same compound?
Answer: 42%

Question: And the pest or weed control at 280 g/ha [1, 9]?
Answer: 55%

Question: And the pest or weed control at 140 g/ha ([3]; ERICA, rate 140 g ae/ha, postemergence)?
Answer: 3%

Question: And the pest or weed control at 280 g/ha ([3]; ERICA, rate 280 g ae/ha, postemergence)?
Answer: 5%

Question: And the pest or weed control at 140 g/ha [3, 12]?
Answer: 8%

Question: And the pest or weed control at 280 g/ha [3, 13]?
Answer: 17%
